Our source for the Ki and EC50 values is ChEMBL document CHEMBL3886833, “Therapeutic prostaglandin receptor agonists” (2016).

A word on the Ki: it is the dissociation constant of the complex between target and ligand, obtained from inhibition or displacement. Broadly, the EC50 is the concentration needed to bring the measured effect to its halfway point.

The target of assay [1] is T1, Prostaglandin E2 receptor EP2 subtype (Homo sapiens, UniProt P43116). Put plainly: Radioligand Binding Assay: The cell homogenate was centrifuged at 19000 r.p.m. for 20 min at 4° C. using a Beckman Ti-60 rotor. The resultant pellet was resuspended in TME buffer to give a final 1 mg/ml protein concentration, as determined by Biorad assay. Radioligand binding competition assays vs. [3H-]17-phenyl PGF2a , (5 nM) were performed in a 100 μl volume for 60 min. Binding reactions were started by adding plasma membrane fraction. The reaction was terminated by the addition of 4 ml ice-cold TRIS-HCl buffer and rapid filtration through glass fiber GF/B filters using a Brandel cell harvester. The filters were washed 3 times with ice-cold buffer and oven dried for one hour. [3H-] PGE2 (specific activity 180 Ci mmol) was used as the radioligand for EP receptors. [3H] 17-phenyl PGF2a, was employed for FP receptor binding studies. Binding studies employing EP1, EP2, EP4 and FP receptors were performed in duplicate in at least three separate experiments. A 200 μl assay volume was used. Incubations w. The assay is classed as cell-free.

For the next assay, the target named is T2, Thromboxane A2 receptor (Homo sapiens, UniProt P21731).
T2 sequence (P21731 whole entry): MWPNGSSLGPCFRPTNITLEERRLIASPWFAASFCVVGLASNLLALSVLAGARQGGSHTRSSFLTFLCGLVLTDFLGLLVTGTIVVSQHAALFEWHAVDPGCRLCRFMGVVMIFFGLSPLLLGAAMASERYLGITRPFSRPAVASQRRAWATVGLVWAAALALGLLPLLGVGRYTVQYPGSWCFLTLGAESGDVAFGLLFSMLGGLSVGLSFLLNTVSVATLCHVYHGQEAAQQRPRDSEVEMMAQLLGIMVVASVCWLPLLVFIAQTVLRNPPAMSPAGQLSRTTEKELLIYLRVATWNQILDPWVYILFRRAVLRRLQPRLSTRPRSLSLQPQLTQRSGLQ
Put plainly: FLIPR Assay: Calciium Signal Studies of the Flipr. Cells were seeded at a density of 5×10^4 cells per well in Biocoati® Poly-D-lysine-coated black-wall, clear-bottom 96-well plates (Becton-Dickinson) and allowed to attach overnight in an incubator at 37° C. Cells were then washed two times with HBSS-HEPES buffer (Hanks Balanced Salt Solution without bicarbonate and phenol red, 20 mM HEPES, pH 7.4) using a Denley Cellwash plate washer (Labsystems). After 45 minutes of dye-loading in the dark, using the calcium-sensitive dye Fluo-4 AM at a final concentration of 2 μM, plates were washed four times with HBSS-HEPES buffer to remove excess dye leaving 100 μl in each well. Plates were re-equilibrated to 37° C. for a few minutes. Cells were excited with an Argon laser at 488 nm, and emission was measured through a 510-570 nm bandwidth emission filter (FLIPR, Molecular Devices, Sunnyvale, Calif.). Drug solution was added in a 50 μl volume to each well to give the desired final concentration. The assay is classed as functional.

Assay [2] addresses T1, Prostaglandin E2 receptor EP2 subtype. Nature of the assay: cAMP Assay: A 384-well drug plate was prepared to contain test compounds, PGE2 and cAMP in 16 serial dilutions in triplicate, using a Biomek station. HEK-EBNA cells expressing a target PG receptor subtype (EP2 or EP4) were suspended in a stimulation buffer (HBSS, 0.1% BSA, 0.5 mM IBMX and 5 mM HEPES, pH 7.4) in a density of 10^4 cells/5 μl. The reaction was initiated by mixing 5 μL drug dilutions with 5 μl of HEK-EBNA cells in a well, carried out for 30 min at room temperature, and followed by the addition of 5 μl anti-cAMP acceptor beads in the control buffer with Tween-20 (25 mM NaCl, 0.03% Tween-20, 5 mM HEPES, pH7.4). After 30 min in the dark at room temperature, the mixtures were incubated with 15 μl biotinylated-cAMP/strpavidin donor beads in Lysis/Detection buffer (0.1% BSA, 0.3% Tween-20 and 5 mM HEPES, pH7.4) for 45 min at the room temperature. Fluorescence changes were read using a Fusion-alpha HT microplate reader. In kind it is functional, cell-based, 104.

T1 sequence (P43116 whole entry): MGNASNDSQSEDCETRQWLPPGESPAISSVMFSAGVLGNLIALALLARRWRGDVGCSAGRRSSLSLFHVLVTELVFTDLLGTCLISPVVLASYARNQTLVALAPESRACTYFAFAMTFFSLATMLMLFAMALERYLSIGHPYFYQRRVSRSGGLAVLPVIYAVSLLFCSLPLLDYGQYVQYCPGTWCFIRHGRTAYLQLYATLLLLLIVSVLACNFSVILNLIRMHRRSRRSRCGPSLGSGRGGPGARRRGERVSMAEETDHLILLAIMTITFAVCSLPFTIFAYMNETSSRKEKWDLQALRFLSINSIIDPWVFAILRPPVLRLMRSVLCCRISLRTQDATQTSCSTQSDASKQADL

With `O=C(O)c1ccc(CC[C@H]2C(=O)CC[C@@H]2/C=C/C(O)Cc2cccc(Br)c2)cc1` (single isomer, unassigned), the Ki in assay [1] is 1170 nM. The values for the EC50 (on Thromboxane A2 receptor; in assay [2]) were 100 nM and 8 nM, respectively.
